Experimental data reported in PubChem BioAssay AID328 (DTP/NCI, 2004).
Where “and” joins values, the source holds several entries; their conditions need not be identical. Equal values may be shown once. Toxic doses and inconclusive results are not listed. Starred links: 1 amine or outer side, 2 acyl side, 3 side chain; linkers in the order of their positions; H or OH if unused. Positions of bridges follow the written chain, without caps; N, C: chain ends. Non-standard residues stand in square brackets, D forms with d. Residues, ends and D or L forms follow the SMILES beside them. Chains are numbered I, II in the order given. Actinocin(1to9) = Cc1c2oc3c(C)ccc(C(=O)[*:2])c3nc-2c(C(=O)[*:1])c(N)c1=O; X2 = CC(=O)OC1CC(C)N([*:1])C1C(=O)[*:2]; X1 = CC1CC(=O)C(C(=O)[*:2])N1[*:1]; NMeV = CN[CH](C(=O)O)C(C)C; NMeA = CN[CH](C)C(=O)O; Sar = CNCC(=O)O

Tested on: BDF1 mice, P388 leukemia ip, median survival T/C
Assay: NCI In Vivo Anticancer Drug Screen. Data for tumor model P388 Leukemia (intraperitoneal) in B6D2F1 (BDF1) mice
Conditions: endpoint: median survival time, higher = longer survival
Procedure, shortened: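 Antitumour effect was judged in vivo: survival in drug-treated mice, normalised to that of vehicle-dosed controls, gives the reported T/C.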

[1] = dose: 25.0 mg/kg/injection, schedule: Q01DX009 (ip), vehicle: saline with Tween-80
[2] = dose: 50.0 mg/kg/injection, schedule: Q01DX009 (ip), vehicle: saline with Tween-80
[3] = dose: 200.0 mg/kg/injection, schedule: Q04DX003 (ip), vehicle: Klucel (hydroxypropylcellulose) (HPC)
[4] = dose: 400.0 mg/kg/injection, schedule: Q04DX003 (ip), vehicle: Klucel (hydroxypropylcellulose) (HPC)
[5] = dose: 100.0 mg/kg/injection, schedule: Q04DX003 (ip), vehicle: saline with Tween-80
[6] = dose: 200.0 mg/kg/injection, schedule: Q04DX003 (ip), vehicle: saline with Tween-80
[7] = dose: 400.0 mg/kg/injection, schedule: Q04DX003 (ip), vehicle: saline with Tween-80
[8] = dose: 100.0 mg/kg/injection, schedule: Q01DX009 (ip), vehicle: saline with Tween-80
[9] = dose: 75.0 mg/kg/injection, schedule: Q01DX009 (ip), vehicle: Klucel (hydroxypropylcellulose) (HPC)

## S=c1c(S)c(S)c1=S
dose: 100.0 mg/kg/injection, schedule: Q04DX002 (ip), vehicle: saline
  T/C: 100 % of control
dose: 200.0 mg/kg/injection, schedule: Q04DX002 (ip), vehicle: saline
  T/C: 100 % of control
dose: 400.0 mg/kg/injection, schedule: Q04DX002 (ip), vehicle: saline
  T/C: 100 % of control

## O=C(Nc1ccc(-c2cn3ccccc3n2)cc1)c1cc(Br)ccc1O
dose: 12.5 mg/kg/injection, schedule: Q01DX009 (ip), vehicle: saline with Tween-80
  T/C: 100 % of control
[1]
  T/C: 91 % of control
[2]
  T/C: 107 % of control

## c1ccc2c(c1)ccc1c2c[n+](CCCCCCCC[n+]2cc3c4ccccc4ccc3c3ccccc32)c2ccccc12
dose: 1.56 mg/kg/injection, schedule: Q01DX009 (ip), vehicle: other
  T/C: 165 % of control
dose: 6.25 mg/kg/injection, schedule: Q01DX009 (ip), vehicle: other
  T/C: 98 % of control
dose: 12.5 mg/kg/injection, schedule: Q01DX009 (ip), vehicle: other
  T/C: 106 % of control
dose: 25.0 mg/kg/injection, schedule: Q01DX009 (ip), vehicle: other
  T/C: 95 % of control

## COc1ccc(OC)c(NC(=O)NC(c2ccccc2)c2ccccc2)c1
dose: 12.5 mg/kg/injection, schedule: Q01DX009 (ip), vehicle: Klucel (hydroxypropylcellulose) (HPC)
  T/C: 93 % of control

## CNC(=O)c1ccccc1C(O)(c1ccccc1)c1ccccc1
dose: 100.0 mg/kg/injection, schedule: Q04DX003 (ip), vehicle: Klucel (hydroxypropylcellulose) (HPC)
  T/C: 113 % of control
[3]
  T/C: 109 % of control
[4]
  T/C: 100 % of control

## COc1cc(OC)c(OC)cc1/C=C\c1ccnc2ccccc12
dose: 133.0 mg/kg/injection, schedule: Q01DX010 (ip), vehicle: saline
  T/C: 120 % of control
dose: 200.0 mg/kg/injection, schedule: Q01DX009 (ip), vehicle: carboxymethylcellulose (CMC)
  T/C: 116 % of control
dose: 200.0 mg/kg/injection, schedule: Q01DX010 (ip), vehicle: saline
  T/C: 120 % of control
dose: 400.0 mg/kg/injection, schedule: Q01DX009 (ip), vehicle: carboxymethylcellulose (CMC)
  T/C: 166 % of control
dose: 450.0 mg/kg/injection, schedule: Q01DX010 (ip), vehicle: saline
  T/C: 120 % of control

## COC(=O)C1=C(C)NC(=O)NC1c1ccc(N(CCCl)CCCl)c(OC)c1 (configuration not stated)
dose: 1.3 mg/kg/injection, schedule: Q01DX009 (ip), vehicle: saline with Tween-80
  T/C: 169 % of control
dose: 2.0 mg/kg/injection, schedule: Q01DX009 (ip), vehicle: saline with Tween-80
  T/C: 227 % of control
dose: 3.0 mg/kg/injection, schedule: Q01DX009 (ip), vehicle: saline with Tween-80
  T/C: 220 % of control
dose: 4.5 mg/kg/injection, schedule: Q01DX009 (ip), vehicle: saline with Tween-80
  T/C: 227 % of control

## O=C1C=C(c2ccccc2)C(c2ccccc2)C(c2ccccc2)C1 (configuration not stated)
[5]
  T/C: 100 % of control
[6]
  T/C: 91 % of control
[7]
  T/C: 86 % of control

## C/C(=N\Nc1nc2ccccc2o1)c1ccncc1
[3]
  T/C: 104 % of control
[4]
  T/C: 86 % of control

## O=C(Nc1[nH]nc2nccnc12)C(F)(F)F
[5]
  T/C: 109 % of control
[6]
  T/C: 104 % of control
[7]
  T/C: 118 % of control

## Cc1cc(Cl)ccc1NC(=O)Oc1nc2ccccc2o1
[2]
  T/C: 123 % of control
[8]
  T/C: 106 % of control
dose: 200.0 mg/kg/injection, schedule: Q01DX009 (ip), vehicle: saline with Tween-80
  T/C: 117 % of control

## COC1CC(N=[N+]=[N-])C(O)C(C)O1 (configuration not stated)
[5]
  T/C: 118 % of control and 101 % of control
[6]
  T/C: 110 % of control and 101 % of control
[7]
  T/C: 118 % of control and 93 % of control
dose: 500.0 mg/kg/injection, schedule: Q04DX003 (ip), vehicle: saline with Tween-80
  T/C: 109 % of control

## O=C(O)C1(C(=O)O)CC2CC=CCC2C1 (configuration not stated)
dose: 100.0 mg/kg/injection, schedule: Q04DX003 (ip), vehicle: saline
  T/C: 110 % of control
dose: 200.0 mg/kg/injection, schedule: Q04DX003 (ip), vehicle: saline
  T/C: 120 % of control

## CC(=O)OC1CC(C)N2C(=O)C(C(C)C)NC(=O)C(NC(=O)c3ccc(C)c4oc5c(C)c(=O)c(N)c(C(=O)NC6C(=O)NC(C(C)C)C(=O)N7C(C)CC(=O)C7C(=O)N(C)CC(=O)N(C)C(C)C(=O)OC6C)c-5nc34)C(C)OC(=O)C(C(C)C)N(C)C(=O)CN(C)C(=O)C12 (configuration not stated) (I: TV[X1][Sar][NMeA] / II: TV[X2][Sar][NMeV]; ester I:1-I:C, II:1-II:C; linker I:N-II:N via Actinocin(1to9); configuration not given here)
dose: 0.05 mg/kg/injection, schedule: Q01DX009 (ip), vehicle: saline + alcohol
  T/C: 100 % of control
dose: 0.1 mg/kg/injection, schedule: Q01DX009 (ip), vehicle: saline + alcohol
  T/C: 117 % of control
dose: 0.15 mg/kg/injection, schedule: Q04DX003 (ip), vehicle: saline + alcohol
  T/C: 98 % of control
dose: 0.3 mg/kg/injection, schedule: Q04DX003 (ip), vehicle: saline + alcohol
  T/C: 113 % of control
dose: 0.4 mg/kg/injection, schedule: Q01DX009 (ip), vehicle: saline + alcohol
  T/C: 156 % of control
dose: 0.8 mg/kg/injection, schedule: Q01DX009 (ip), vehicle: saline + alcohol
  T/C: 189 % of control
dose: 1.2 mg/kg/injection, schedule: Q04DX003 (ip), vehicle: saline + alcohol
  T/C: 153 % of control
dose: 2.4 mg/kg/injection, schedule: Q04DX003 (ip), vehicle: saline + alcohol
  T/C: 202 % of control
dose: 6.4 mg/kg/injection, schedule: Q01DX001 (ip), vehicle: saline + alcohol
  T/C: 159 % of control

## C=C1C(=O)OC2CC(C)C3(O)CCC(C)(CC(OC(=O)C(C)C)C12)O3 (configuration not stated)
dose: 40.0 mg/kg/injection, schedule: Q01DX009 (ip), vehicle: saline
  T/C: 100 % of control
dose: 50.0 mg/kg/injection, schedule: Q01DX009 (ip), vehicle: Klucel (hydroxypropylcellulose) (HPC)
  T/C: 117 % of control
dose: 100.0 mg/kg/injection, schedule: Q01DX009 (ip), vehicle: Klucel (hydroxypropylcellulose) (HPC)
  T/C: 117 % of control and 118 % of control

## CCCCCCCCCCCCCCC1C(=O)NN(c2ccccc2)C1=O (configuration not stated)
dose: 37.5 mg/kg/injection, schedule: Q01DX009 (ip), vehicle: saline with Tween-80
  T/C: 108 % of control
dose: 75.0 mg/kg/injection, schedule: Q01DX009 (ip), vehicle: saline with Tween-80
  T/C: 115 % of control
dose: 150.0 mg/kg/injection, schedule: Q01DX009 (ip), vehicle: saline with Tween-80
  T/C: 122 % of control

## Nc1[nH]c(=S)[nH]c(=O)c1N
[9]
  T/C: 115 % of control
dose: 100.0 mg/kg/injection, schedule: Q01DX001 (ip), vehicle: Klucel (hydroxypropylcellulose) (HPC)
  T/C: 95 % of control
dose: 200.0 mg/kg/injection, schedule: Q01DX001 (ip), vehicle: Klucel (hydroxypropylcellulose) (HPC)
  T/C: 95 % of control

## CCCCNC(C)(C)C(SSC(c1cccs1)C(C)(C)NCCCC)c1cccs1 (configuration not stated)
[1]
  T/C: 100 % of control
dose: 25.0 mg/kg/injection, schedule: Q04DX003 (ip), vehicle: saline with Tween-80
  T/C: 109 % of control
[2]
  T/C: 100 % of control
dose: 50.0 mg/kg/injection, schedule: Q04DX003 (ip), vehicle: saline with Tween-80
  T/C: 118 % of control
[5]
  T/C: 118 % of control

## CC(=O)Nc1ccc(NNCc2ccccc2)c(N)c1
dose: 100.0 mg/kg/injection, schedule: Q01DX001 (ip), vehicle: saline with Tween-80
  T/C: 97 % of control
dose: 200.0 mg/kg/injection, schedule: Q01DX001 (ip), vehicle: saline with Tween-80
  T/C: 96 % of control
dose: 400.0 mg/kg/injection, schedule: Q01DX001 (ip), vehicle: saline with Tween-80
  T/C: 91 % of control

## CC1CCC2CON(C(C)(C)C)C2C1 (configuration not stated)
[2]
  T/C: 100 % of control
[8]
  T/C: 100 % of control

## N/C(=N\OS(=O)(=O)c1ccccc1)OC1CCCCC1
[5]
  T/C: 99 % of control
[6]
  T/C: 98 % of control
[7]
  T/C: 98 % of control

## CC1CN(C(=O)Nc2ccc(Cl)cc2)CC(C)O1 (configuration not stated)
[9]
  T/C: 110 % of control
dose: 150.0 mg/kg/injection, schedule: Q01DX009 (ip), vehicle: Klucel (hydroxypropylcellulose) (HPC)
  T/C: 110 % of control
dose: 300.0 mg/kg/injection, schedule: Q01DX009 (ip), vehicle: Klucel (hydroxypropylcellulose) (HPC)
  T/C: 120 % of control

## Cc1ccc2oc3ccccc3c(=O)c2c1
dose: 50.0 mg/kg/injection, schedule: Q01DX001 (ip), vehicle: saline sonified
  T/C: 95 % of control
dose: 100.0 mg/kg/injection, schedule: Q01DX001 (ip), vehicle: saline sonified
  T/C: 95 % of control
dose: 200.0 mg/kg/injection, schedule: Q01DX001 (ip), vehicle: saline sonified
  T/C: 95 % of control
